The source of these data is PMC4287998 (Phytochemistry letters, 2014).

The subject of experiment [1] is HT-29 human colon cancer cell line. The experiment in a line: Cytotoxicity assay. The experiment is classed as cell-based. Conditions: HT-29 cells, two days' incubation, SRB; ED50 > 20 µM considered inactive.
Experiment [2] has as its system Leishmania mexicana promastigotes. The experiment in a line: Promastigote assay, live/dead parasites by flow cytometry. The experiment is classed as cell-based. As to conditions: 48 h, read-out: L. mexicana promastigotes IC50.
The target in a further experiment is NF-κB (p65) (Homo sapiens, UniProt Q04206). Kind of experiment: Enzyme-based ELISA NF-κB. The experiment is classed as biochemical. On the technique in general: ELISA stands for enzyme-linked immunosorbent assay.

For orientation: IC50 means the concentration needed to halve the response being measured.

Sequence of NF-κB (p65) (Q04206 whole entry): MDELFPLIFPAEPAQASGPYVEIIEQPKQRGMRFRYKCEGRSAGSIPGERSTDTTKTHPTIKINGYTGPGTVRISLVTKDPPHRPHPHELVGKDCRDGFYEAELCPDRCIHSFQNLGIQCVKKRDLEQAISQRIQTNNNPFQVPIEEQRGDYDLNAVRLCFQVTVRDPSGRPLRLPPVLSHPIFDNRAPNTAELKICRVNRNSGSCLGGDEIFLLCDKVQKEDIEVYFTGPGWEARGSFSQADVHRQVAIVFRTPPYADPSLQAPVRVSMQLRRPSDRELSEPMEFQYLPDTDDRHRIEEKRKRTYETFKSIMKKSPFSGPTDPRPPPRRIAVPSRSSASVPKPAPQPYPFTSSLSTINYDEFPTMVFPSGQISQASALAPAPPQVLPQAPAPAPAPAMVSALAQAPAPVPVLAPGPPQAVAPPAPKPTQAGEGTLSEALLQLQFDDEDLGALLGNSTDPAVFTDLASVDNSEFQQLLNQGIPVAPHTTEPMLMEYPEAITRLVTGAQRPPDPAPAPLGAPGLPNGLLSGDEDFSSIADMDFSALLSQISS
Sequence of NF-κB (p65) (P19838 1-433 partner limits assumed): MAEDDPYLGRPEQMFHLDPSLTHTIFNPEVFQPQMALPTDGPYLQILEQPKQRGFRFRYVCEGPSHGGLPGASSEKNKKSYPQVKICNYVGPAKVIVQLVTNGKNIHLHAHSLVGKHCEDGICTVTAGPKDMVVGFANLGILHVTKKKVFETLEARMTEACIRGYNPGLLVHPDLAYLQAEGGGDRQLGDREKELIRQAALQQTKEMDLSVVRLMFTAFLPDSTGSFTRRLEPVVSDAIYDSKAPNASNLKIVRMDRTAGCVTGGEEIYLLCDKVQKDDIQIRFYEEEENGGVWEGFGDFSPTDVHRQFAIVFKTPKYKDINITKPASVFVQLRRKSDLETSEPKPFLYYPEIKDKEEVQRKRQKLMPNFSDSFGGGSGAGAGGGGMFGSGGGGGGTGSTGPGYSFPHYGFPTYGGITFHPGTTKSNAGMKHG

`C/C=C1\CN2CCC34CC5C6CC7c8c(c9ccccc9n8C)CC(C6COC5(C)OC35C2CC1C(C(=O)OC)N5c1ccccc14)N7C` (stereo not drawn) [Compound 7, villalstonine]: the “HT-29 ED50” value in experiment [1] came out at 8.0 µM. As to `C/C=C1/CN2[C@H]3C[C@@H]1[C@@H](CO)[C@@H]2Cc1c3n(C)c2ccccc12` [Compound 6, affinisine], in experiment [1], the “HT-29 ED50” value is reported as more than 20 µM. On the same count and under the same terms, next, `C/C=C1/C[N+]2(C)CC[C@@]34C[C@H]5[C@@H]6C[C@H]7c8c(c9ccccc9n8C)C[C@@H]([C@@H]6CO[C@@]5(C)O[C@@]35[C@@H]2C[C@@H]1[C@@H](C(=O)OC)N5c1ccccc14)N7C.[Cl-]` (stereo partly drawn) [Compound 10, villalstonidine E]: 6.5 µM. For `C[C@@H]1[C@H](O)[C@@H](C)/C=C/C=C/C=C/C=C/C=C/C=C/C=C/[C@H](O[C@@H]2O[C@H](C)[C@@H](O)[C@H](N)[C@@H]2O)C[C@@H]2O[C@](O)(C[C@@H](O)C[C@@H](O)[C@H](O)CC[C@@H](O)C[C@@H](O)CC(=O)O[C@H]1C)C[C@H](O)[C@H]2C(=O)O` [Amphotericin B, reference compound], in experiment [2], the IC50 is 0.09 µM. Take `C[C@@H]1OC[C@@H]2[C@@H](C[C@H]3c4c(c5ccccc5n4C)C[C@@H]2N3C)[C@H]1CO` [Compound 5, macrocarpine B]: the IC50 on NF-κB (p65) was more than 20 µM; in experiment [2], more than 200 µM.

Consider “21-deoxy-N(4)-methyl-21-oxo-N(4),21-secotalpinine [Compound 2]”, for which the “HT-29 ED50” value in experiment [1] is on record as more than 20 µM. Turning to `CC(=O)C1=COC[C@@H]2[C@H]1C[C@H]1c3c(c4ccccc4n3C)C[C@@H]2N1C` [Compound 4, alstonerine], in experiment [1], the “HT-29 ED50” value is given as more than 20 µM. Moreover, the IC50 on NF-κB (p65) was more than 20 µM; in experiment [2], 145 µM. For the compound villalstonidine D [Compound 9], the “HT-29 ED50” value in experiment [1] is more than 20 µM.

Consider `COc1ccc([C@@]23Oc4cc(OC)cc(OC)c4[C@]2(O)[C@H](O)[C@H](C(=O)N(C)C)[C@H]3c2ccccc2)cc1` [Rocaglamide, reference compound], for which the “HT-29 ED50” value in experiment [1] was 0.005 µM. `CC(=O)O[C@H]1C(=O)[C@@]2(C)[C@H]([C@H](OC(=O)c3ccccc3)[C@]3(O)C[C@H](OC(=O)[C@H](O)[C@@H](NC(=O)c4ccccc4)c4ccccc4)C(C)=C1C3(C)C)[C@]1(OC(C)=O)CO[C@@H]1C[C@@H]2O` [Paclitaxel, reference compound]: in experiment [1], the “HT-29 ED50” value was found to be 0.006 µM. In the case of N(4)-methyltalpinine [Compound 1], the “HT-29 ED50” value in experiment [1] was more than 20 µM. villalstonine N(4)-oxide [Compound 8]: in experiment [1], the “HT-29 ED50” value is more than 20 µM.

For the compound `CC1=C(C=O)[C@@H]2C[C@H]3c4c(c5ccccc5n4C)C[C@@H]([C@@H]2CO1)N3C` [Compound 3, alstonerinal], the “HT-29 ED50” value in experiment [1] was determined as 8.6 µM. Further, the IC50 at NF-κB (p65) is more than 20 µM; in experiment [2], 105 µM.
